From patent US11779582B2, “Composition for preventing or treating metastatic ovarian cancer, endometrial cancer or breast cancer” (LEMONEX INC., priority 2017, dated 2023)

Assays:
Format in all cases: cell-based
[1] = test system: SKOV3-TR ovarian cancer cells; test: microscopic analysis of cell shape change due to cytotoxicity
Protocol: (§1) According to the same procedures as described in the previous examples, each cell line was divided and cultured by 2D monolayer culture and 3D sphere culture, respectively. Then, a change due to administration of BGJ398 alone or in combination with paclitaxel was analyzed through morphological analysis and crystal violet staining assay.
FIG. 20 illustrates a change in cell shape due to cytotoxicity under microscopic analysis, when paclitaxel alone, BGJ398 alone or in combination with paclitaxel was administered to SKOV3-TR ovarian cancer cells.

[2] = test system: SKOV3-TR ovarian cancer cells; test: crystal violet cell viability in paclitaxel-resistant cells
Protocol: SKOV3-TR cell line was offered from Sood AK in MD-Anderson Cancer Center (USA) and then used in the present experiments.
Paclitaxel resistance of each of SKOV3 and SKOV3-TR was determined by measuring the cell viability through crystal violet colorimetric assay. This experiment was implemented three times and a difference in results thereof was estimated by student's t-test.
as §1

[3] = test system: SKOV3-TR ovarian cancer cells; test: FACS assay of DNA content (propidium iodide), Sub-G1
Protocol: More particularly, the degree of cell apoptosis can be confirmed when DNA content in the cell is treated by propidium iodide (PI) staining and is assessed by FACS. If cell apoptosis occurs, genes in the cells are disrupted and Sub-Gi region below G1 is increased.
FIG. 23 graphically illustrates FACS results, which were divided by a cell cycle in the same experiments described above. Referring to this figure, it can be seen that the treatment using 2.5 μM BGJ398 in combination with 50 nM paclitaxel increases Gub-G1 cells in SKOV-TR cells by about 2.5 times, compared to 50 nM paclitaxel alone, thereby improving anticancer activity.

[4] = test system: SKOV3ip1-TR ovarian cancer cells; test: microscopic analysis of cell shape change; conditions: BGJ398 in combination with paclitaxel (FIG. 21)
Protocol: FIG. 21 illustrates a change in cell shape, when paclitaxel alone, BGJ398 alone or in combination with […] was administered to the SKOV3ip1-TR ovarian cancer cells.

[5] = test system: monolayer cultured SKOV3ip1 ovarian cancer cells; test: crystal violet cell viability, 2D monolayer culture
Protocol: 2D monolayer culture was implemented in the following manner: cells were cultured at 37° C., 5% CO2 humidified atmosphere using RPMI 1640 medium (Corning, NY, USA) supplemented with 10% fetal bovine serum (Gibco, NY, USA) and 10 U/ml penicillin/streptomycin.
Crystal violet staining was implemented to determine the cell viability in the monolayer cultured cell model and sphere cultured cell model. In order to implement the crystal violet staining in the monolayer culture model, SKOV3ip1 cells (5×10^4) were dispensed in commercial 24-well plates and incubated overnight. Thereafter, the drug was dispensed with a desired concentration for experiment into each well, followed by further incubation for 72 hours. 300 μl of 0.2% crystal violet solution was added to each well, followed by further incubation for 20 minutes while gently stirring the same. The stained cells were washed with distilled water until a clean background is observed. For assessment using a colorimeter, the crystal violet dye was extracted with 1% SDS/PBS and absorbance was measured at 570 nm wavelength by EMax PLUS microplate reader (Molecular Device, USA).
The monolayer cultured or sphere cultured SKOV3ip1 cells were treated with the tyrosine kinase inhibitor and paclitaxel for 72 hours, the cell viability was determined by the crystal violet colorimeter, and results thereof are shown in FIG. 3.

[6] = test system: Hs578T breast cancer cell line (3D sphere culture); test: morphological analysis and crystal violet staining, 3D sphere culture
Protocol: (§2) With respect to the cancer cell lines listed in Table 1 below, synergistic effects of paclitaxel and BGJ398 were further examined. According to the same procedures as described in the previous examples, each cell line was divided and cultured by 2D monolayer culture and 3D sphere culture, respectively. Then, a change due to BGJ398 administration was analyzed through morphological analysis and crystal violet staining assay. All cell lines were purchased from ATCC and used in the present experiments, and detailed information thereof are shown in Table 3 below.
as §1, with “With respect to the cancer cell lines listed in Table 2 below, synergistic effects of paclitaxel and BGJ398 were further examined. According” for “According”, “analysis.” for “analysis and crystal violet staining assay.”

[7] = test system: HEC1B endometrial cancer cell line (3D sphere culture); test: as above
Protocol: as §2
as §1, with “With respect to the cancer cell lines listed in Table 2 below, synergistic effects of paclitaxel and BGJ398 were further examined. According” for “According”, “analysis.” for “analysis and crystal violet staining assay.”

[8] = test system: sphere cultured SKOV3ip1 cells; test: microscopic observation of aggregated (spheroid) form; conditions: 5 μM BGJ398, 3 μM TAE648, 5 μM imatinib (FIG. 5)
Protocol: For 3D sphere culture, SKOV3ip1 cells (1×10^6) were dispensed on ultra-low adherent 6-well plate (Corning NY, USA), and then, cultured in 5% CO2 incubator using RPMI 1640 medium supplemented with 10% fetal bovine serum (Gibco, NY, USA) and 10 U/ml penicillin/streptomycin (Gibco).

SKOV3ip1 = test: crystal violet staining assay, cisplatin and BGJ398, 2D culture; conditions: SKOV3ip1, BGJ398 in combination with cisplatin (FIGS. 30 and 31)
Protocol: (§3) According to the same procedures as described in the previous examples, each cell line was subjected to 2D culture and a change thereof upon administration of cisplatin alone, BGJ398 alone or in combination with cisplatin was analyzed through crystal violet staining assay.

SKOV3-TR = test: as above; conditions: BGJ398 in combination with cisplatin (FIGS. 30 and 31)
Protocol: as §3

[9] = test system: HEC1B endometrial cancer cell line (2D monolayer culture); test: crystal violet staining and morphology, paclitaxel in combination with BGJ398
Protocol: as §1, with “With respect to the cancer cell lines listed in Table 2 below, synergistic effects of paclitaxel and BGJ398 were further examined. According” for “According”, “analysis.” for “analysis and crystal violet staining assay.”

[10] = test system: Hs578T breast cancer cell line (2D monolayer culture); test: as above
Protocol: as §1, with “With respect to the cancer cell lines listed in Table 2 below, synergistic effects of paclitaxel and BGJ398 were further examined. According” for “According”, “analysis.” for “analysis and crystal violet staining assay.”

In the case of CCN1CCN(c2ccc(Nc3cc(N(C)C(=O)Nc4c(Cl)c(OC)cc(OC)c4Cl)ncn3)cc2)CC1 [BGJ398, 3-(2,6-dichloro-3,5-dimethoxyphenyl)-1-[6-[4-(4-ethylpiperazin-1yl)anilino]pyrimidin-4-yl]-1-methylurea], the “cytotoxicity and morphological change” value ([1]; 2.5 μM BGJ398 in combination with 50 nM paclitaxel (FIG. 20)) is reported as “a detachment phenomenon due to cytotoxicity and formation of cells in irregular shapes”, the “cytotoxicity and morphological change” value ([1]; single agent: 2.5 μM BGJ398 or 50 nM paclitaxel (FIG. 20)) is reported as “negligible cytotoxicity and no morphological change” and the anticancer activity ([2]; BGJ398 at increasing concentration in combination with paclitaxel (FIG. 18)) is reported as “higher anticancer activity with the increased concentration of BGJ398”. For the same molecule, the anticancer activity ([2]; BGJ398 in combination with paclitaxel at increasing concentration (FIG. 19)) was “higher anticancer activity with the increased concentration of paclitaxel”, the anticancer activity ([2]; BGJ398 in combination with paclitaxel vs paclitaxel alone (FIG. 16)) was “significantly improved” and the anticancer activity ([2]; BGJ398 in combination with paclitaxel, 2D monolayer culture and 3D sphere culture (FIG. 17)) was “more improved”. For the same molecule, the “increase of Sub-G1 cells” value ([3]; 2.5 μM BGJ398 in combination with 50 nM paclitaxel, compared to 50 nM paclitaxel alone (FIG. 23)) was “about 2.5 times”, the “apoptotic cells (region below G1, Sub-G1)” value ([3]; BGJ398 in combination with paclitaxel (FIG. 22)) was “the number of apoptotic cells is increased” and the “paclitaxel resistance / anticancer activity (cell shape)” value [4] was “can block paclitaxel resistance, thereby increasing anticancer activity”. The cell viability ([5]; monolayer cultured SKOV3ip1, 72 hours, different concentrations, crystal violet colorimeter (FIG. 3)) was “not effected”, the cytotoxicity ([5]; monolayer cultured SKOV3ip1, BGJ398 concentration increased to 5 μM) was “cytotoxicity was not revealed” and the “cytotoxicity, cell sphere morphology” value ([6]; 3D sphere culture Hs578T, BGJ398 alone or in combination with paclitaxel) was “cell spheres are collapsed”. The cell apoptosis ([6]; sphere cultured Hs578T, BGJ398 alone) was “cell apoptosis can be found”, the “cytotoxicity, cell sphere morphology” value ([7]; 3D sphere culture HEC1B, BGJ398 alone or in combination with paclitaxel) was “cell spheres are collapsed” and the cell apoptosis ([7]; sphere cultured HEC1B, BGJ398 alone) was “cell apoptosis can be found”. The “aggregated (spheroid) form of cells” value [8] was “did not retain a normal coagulation state”, the anticancer activity (SKOV3ip1) was “anticancer activity is improved” and the anticancer activity (SKOV3-TR) was “anticancer activity is improved”. The “effect on anticancer effects of paclitaxel” value ([9]; 2D monolayer HEC1B, BGJ398 in combination with paclitaxel (FIG. 10)) was “enhance anticancer effects of paclitaxel”, the cell apoptosis ([9]; HEC1B, BGJ398 in combination with paclitaxel (FIGS. 10 and 11)) was “cell apoptosis is further increased” and the “effect on anticancer effects of paclitaxel” value ([10]; 2D monolayer Hs578T, BGJ398 in combination with paclitaxel (FIG. 13)) was “enhance anticancer effects of paclitaxel”. For the same molecule, the cell apoptosis ([10]; Hs578T, BGJ398 in combination with paclitaxel (FIGS. 13 and 14)) was “cell apoptosis is further increased”.
